From patent US20140329814A2, “Compositions for Treatment of Cystic Fibrosis and Other Chronic Diseases” (Vertex Pharmaceuticals Incorporated, priority 2010, published 2014) come the findings set out here.

Usually EC50 stands for the concentration at which the effect is half-maximal. A word on the IC50: it is the concentration that inhibits the measured activity by half. A high value points to a need for much substance.

Where a name gives a salt, the structure may show the parent alone. A value given as a limit tells only on which side of the number the result lay.

One assay deals with T1, ΔF508-CFTR (Homo sapiens, UniProt P13569, DEL508-508).
T1 construct: expressed in transfected cells
T1 sequence (P13569 with tags, fused parts or gaps DEL508-508): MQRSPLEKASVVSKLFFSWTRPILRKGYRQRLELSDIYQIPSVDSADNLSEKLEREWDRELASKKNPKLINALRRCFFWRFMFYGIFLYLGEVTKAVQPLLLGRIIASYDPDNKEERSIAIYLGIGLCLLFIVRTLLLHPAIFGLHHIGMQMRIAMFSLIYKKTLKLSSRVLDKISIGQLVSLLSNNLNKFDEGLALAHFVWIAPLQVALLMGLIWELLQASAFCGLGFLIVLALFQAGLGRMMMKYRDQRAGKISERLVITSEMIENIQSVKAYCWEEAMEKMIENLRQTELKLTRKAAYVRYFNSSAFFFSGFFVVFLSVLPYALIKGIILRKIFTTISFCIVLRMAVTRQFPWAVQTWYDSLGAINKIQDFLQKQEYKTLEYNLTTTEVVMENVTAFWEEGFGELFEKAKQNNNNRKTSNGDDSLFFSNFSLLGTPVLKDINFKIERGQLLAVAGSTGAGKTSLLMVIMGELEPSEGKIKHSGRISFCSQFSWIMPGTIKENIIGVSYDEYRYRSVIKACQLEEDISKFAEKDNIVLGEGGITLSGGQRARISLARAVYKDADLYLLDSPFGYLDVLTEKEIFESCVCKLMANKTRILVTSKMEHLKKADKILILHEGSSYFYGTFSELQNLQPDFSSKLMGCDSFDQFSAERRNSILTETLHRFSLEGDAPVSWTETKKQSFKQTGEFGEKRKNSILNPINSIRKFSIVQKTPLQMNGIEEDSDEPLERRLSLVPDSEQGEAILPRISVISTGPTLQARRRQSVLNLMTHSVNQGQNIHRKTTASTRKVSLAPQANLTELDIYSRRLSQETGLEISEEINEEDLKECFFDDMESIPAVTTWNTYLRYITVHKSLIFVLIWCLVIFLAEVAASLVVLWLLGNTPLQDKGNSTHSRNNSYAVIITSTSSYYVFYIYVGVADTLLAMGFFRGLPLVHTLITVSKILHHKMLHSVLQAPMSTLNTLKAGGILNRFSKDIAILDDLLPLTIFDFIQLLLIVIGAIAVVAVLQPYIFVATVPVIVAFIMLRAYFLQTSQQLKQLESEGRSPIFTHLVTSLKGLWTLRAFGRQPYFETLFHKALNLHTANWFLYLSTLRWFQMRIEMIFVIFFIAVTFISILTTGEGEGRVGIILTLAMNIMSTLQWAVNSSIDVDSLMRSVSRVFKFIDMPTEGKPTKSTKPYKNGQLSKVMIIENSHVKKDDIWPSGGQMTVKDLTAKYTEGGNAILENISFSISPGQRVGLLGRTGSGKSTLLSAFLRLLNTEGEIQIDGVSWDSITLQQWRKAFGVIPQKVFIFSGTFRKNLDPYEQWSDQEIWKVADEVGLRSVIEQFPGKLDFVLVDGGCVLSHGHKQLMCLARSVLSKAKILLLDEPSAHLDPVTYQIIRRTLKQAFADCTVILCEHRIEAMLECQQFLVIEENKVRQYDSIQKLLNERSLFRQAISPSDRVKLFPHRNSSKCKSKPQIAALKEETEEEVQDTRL
The experiment in a line: Membrane potential optical (FRET/VIPR) assay, identification of potentiator compounds, NIH3T3 cells expressing ΔF508-CFTR. The class given is cell-based. To be noted: Table II.A-4; EC50 of certain embodiments. From the text:
I) Membrane Potential Optical Methods for Assaying ΔF508-CFTR Modulation Properties of Compounds
The optical membrane potential assay utilized voltage-sensitive FRET sensors described by Gonzalez and Tsien (See, Gonzalez, J. E. and R. Y. Tsien (1995) “Voltage sensing by fluorescence resonance energy transfer in single cells” Biophys J 69(4): 1272-80, and Gonzalez, J. E. and R. Y. Tsien (1997) “Improved indicators of cell membrane potential that use fluorescence resonance energy transfer” Chem Biol 4(4): 269-77) in combination with instrumentation for measuring fluorescence changes such as the Voltage/Ion Probe Reader (VIPR) (See, Gonzalez, J. E., K. Oades, et al. (1999) “Cell-based assays and instrumentation for screening ion-channel targets” Drug Discov Today 4(9): 431-439).
These voltage sensitive assays are based on the change in fluorescence resonant energy transfer (FRET) between the membrane-soluble, voltage-sensitive dye, DiSBAC2(3), and a fluorescent phospholipid, CC2-DMPE, which is attached to the outer leaflet of the plasma membrane and acts as a FRET donor. Changes in membrane potential (Vm) cause the negatively charged DiSBAC2(3) to redistribute across the plasma membrane and the amount of energy transfer from CC2-DMPE changes accordingly. The changes in fluorescence emission were monitored using VIPR™ II, which is an integrated liquid handler and fluorescent detector designed to conduct cell-based screens in 96- or 384-well microtiter plates.
To identify potentiators of ΔF508-CFTR, a double-addition HTS assay format was developed. During the first addition, a Cl^−-free medium with or without test compound was added to each well. After 22 sec, a second addition of Cl^−-free medium containing 2-10 μM forskolin was added to activate ΔF508-CFTR. The extracellular Cl^− concentration following both additions was 28 mM, which promoted Cl^− efflux in response to ΔF508-CFTR activation and the resulting membrane depolarization was optically monitored using the FRET-based voltage-sensor dyes. Solutions
Bath Solution #1: (in mM) NaCl 160, KCl 4.5, CaCl2 2, MgCl2 1, HEPES 10, pH 7.4 with NaOH. Chloride-free bath solution: Chloride salts in Bath Solution #1 are substituted with gluconate salts. CC2-DMPE: Prepared as a 10 mM stock solution in DMSO and stored at −20° C. DiSBAC2(3): Prepared as a 10 mM stock in DMSO and stored at −20° C.
NIH3T3 mouse fibroblasts stably expressing ΔF508-CFTR are used for optical measurements of membrane potential. The cells are maintained at 37° C. in 5% CO2 and 90% humidity in Dulbecco's modified Eagle's medium supplemented with 2 mM glutamine, 10% fetal bovine serum, 1× NEAA, β-ME, 1× pen/strep, and 25 mM HEPES in 175 cm^2 culture flasks. […]
Take `CC(C)(C)OC(=O)NCC(C)(C)c1ccc(NC(=O)c2c[nH]c3ccccc3c2=O)cc1` [compound 88, [2-methyl-2-[4-[(4-oxo-1H-quinolin-3-yl)carbonylamino]phenyl]-propyl]aminoformic acid tert-butyl ester]: the 50% effective concentration (EC50) was less than 10 µM.

With `O=C(Nc1ccccc1Oc1ccccc1)c1c[nH]c2ccccc2c1=O` [compound 413, 4-oxo-N-(2-phenoxyphenyl)-1H-quinoline-3-carboxamide], the EC50 lay in the range of 10 to 25 µM.

As for `Nc1cccc(NC(=O)c2c[nH]c3ccccc3c2=O)c1` [compound 431, N-(3-aminophenyl)-4-oxo-1H-quinoline-3-carboxamide], the EC50 was less than 10 µM.

On to `O=C(Nc1ccc(N2CCOCC2)cc1)c1c[nH]c2ccccc2c1=O` [compound 457, N-(4-morpholinophenyl)-4-oxo-1H-quinoline-3-carboxamide], for which the EC50 is less than 10 µM.

The target in another assay is T2, epithelial sodium channel (ENaC) (Homo sapiens, UniProt P37088+P51168+P51170).
T2 construct: host or cells: primary human bronchial epithelial cells (HBECs), air-liquid interface culture
T2 sequence (P37088 1-669): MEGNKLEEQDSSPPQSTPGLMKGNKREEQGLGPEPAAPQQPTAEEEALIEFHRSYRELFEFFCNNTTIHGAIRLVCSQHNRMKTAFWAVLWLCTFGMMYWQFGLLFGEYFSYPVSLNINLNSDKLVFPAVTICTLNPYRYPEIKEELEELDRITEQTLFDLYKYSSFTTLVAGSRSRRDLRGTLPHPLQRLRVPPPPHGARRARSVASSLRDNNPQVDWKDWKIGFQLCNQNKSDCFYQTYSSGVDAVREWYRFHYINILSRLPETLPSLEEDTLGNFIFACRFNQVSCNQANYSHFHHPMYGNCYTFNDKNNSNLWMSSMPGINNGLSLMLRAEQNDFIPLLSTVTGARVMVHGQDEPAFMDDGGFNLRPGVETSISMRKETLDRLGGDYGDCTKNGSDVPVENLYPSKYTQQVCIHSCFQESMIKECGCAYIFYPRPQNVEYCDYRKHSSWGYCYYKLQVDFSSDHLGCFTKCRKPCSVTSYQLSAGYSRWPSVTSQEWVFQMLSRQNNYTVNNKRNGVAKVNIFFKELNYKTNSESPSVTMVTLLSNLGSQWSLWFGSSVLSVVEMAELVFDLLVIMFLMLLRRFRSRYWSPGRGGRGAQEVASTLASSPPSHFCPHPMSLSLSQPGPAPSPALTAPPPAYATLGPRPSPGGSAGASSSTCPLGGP
T2 sequence (P51168 1-640): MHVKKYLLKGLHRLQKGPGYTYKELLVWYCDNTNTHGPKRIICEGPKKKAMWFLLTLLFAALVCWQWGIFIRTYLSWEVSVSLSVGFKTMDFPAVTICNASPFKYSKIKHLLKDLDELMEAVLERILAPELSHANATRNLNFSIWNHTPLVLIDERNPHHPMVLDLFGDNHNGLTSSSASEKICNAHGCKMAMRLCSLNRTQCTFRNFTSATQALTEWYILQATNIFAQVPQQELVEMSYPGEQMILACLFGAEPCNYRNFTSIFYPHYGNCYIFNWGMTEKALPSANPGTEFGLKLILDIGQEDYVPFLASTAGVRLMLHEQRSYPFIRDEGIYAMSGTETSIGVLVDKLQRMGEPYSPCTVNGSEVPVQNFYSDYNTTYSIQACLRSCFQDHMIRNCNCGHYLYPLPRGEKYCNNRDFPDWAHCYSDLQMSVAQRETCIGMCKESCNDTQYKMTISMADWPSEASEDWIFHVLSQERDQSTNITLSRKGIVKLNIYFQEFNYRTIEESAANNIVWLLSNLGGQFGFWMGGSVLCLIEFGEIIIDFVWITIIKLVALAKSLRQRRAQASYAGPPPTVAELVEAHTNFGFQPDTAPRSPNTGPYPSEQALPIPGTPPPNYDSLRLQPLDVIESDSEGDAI
T2 sequence (P51170 1-649): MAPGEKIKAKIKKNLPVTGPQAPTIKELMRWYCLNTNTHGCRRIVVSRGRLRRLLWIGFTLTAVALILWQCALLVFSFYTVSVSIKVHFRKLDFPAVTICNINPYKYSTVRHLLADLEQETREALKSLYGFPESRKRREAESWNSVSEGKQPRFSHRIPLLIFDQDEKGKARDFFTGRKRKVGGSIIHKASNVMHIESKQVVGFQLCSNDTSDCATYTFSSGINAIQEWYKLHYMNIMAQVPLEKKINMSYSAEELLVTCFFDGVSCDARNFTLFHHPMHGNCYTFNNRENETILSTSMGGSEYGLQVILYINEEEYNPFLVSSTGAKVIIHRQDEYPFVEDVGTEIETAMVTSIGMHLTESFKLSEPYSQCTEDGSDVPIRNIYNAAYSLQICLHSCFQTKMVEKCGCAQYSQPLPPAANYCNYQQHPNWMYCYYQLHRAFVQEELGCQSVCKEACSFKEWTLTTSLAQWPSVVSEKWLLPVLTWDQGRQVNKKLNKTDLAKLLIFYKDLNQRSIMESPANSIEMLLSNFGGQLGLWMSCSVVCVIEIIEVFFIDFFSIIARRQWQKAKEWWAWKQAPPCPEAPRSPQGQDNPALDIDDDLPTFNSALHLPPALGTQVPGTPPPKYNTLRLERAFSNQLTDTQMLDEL
Nature of the assay: Short circuit current (ISC) measurements in human bronchial epithelial cells, inhibition of amiloride-sensitive ISC. The format is cell-based. Particulars: inhibition of the amiloride-sensitive ISC, HBECs at air-liquid interface, compound added to apical chamber. Here is the method:
Compounds of Formula E and their pharmaceutically acceptable salts, hereinafter referred to alternatively as “illustrative ENaC inhibitors of the invention”, are useful as pharmaceuticals. In particular, the compounds have good ENaC blocker activity and may be tested in the following assays.
Human Bronchial Epithelial cells (HBECs) (Cambrex) were cultured under air-liquid interface conditions to provide a well differentiated mucociliary phenotype.
HBECs were cultured using a modification of the method described by Gray and colleagues (Gray et al., 1996). […]
Snapwell inserts were mounted in Vertical Diffusion Chambers (Costar) and were bathed with continuously gassed Ringer solution (5% CO2 in O2; pH 7.4) maintained at 37° C. containing (in mM): 120 NaCl, 25 NaHCO3, 3.3 KH2PO4, 0.8 K2HPO4, 1.2 CaCl2, 1.2 MgCl2, and 10 glucose. […] RT was measured by applying a 1- or 2-mV pulse at 30-s intervals and calculating RT by Ohm's law. Data were recorded using a PowerLab workstation (ADInstruments).
Test compounds were prepared as a 10 mM stock solution in DMSO (95%). […] At the completion of the concentration-response experiment, amiloride (10 μM) was added into the apical chamber to enable the total amiloride-sensitive current to be measured. […]
Results are expressed as the mean % inhibition of the amiloride-sensitive ISC. […]
Molecule `CCCC1N/C(=N/C(=O)c2nc(Cl)c(N)nc2N)NC1CCCc1ccc(OCC(O)CO)cc1` (stereo in doubt) [Example 29, (E)-3,5-diamino-6-chloro-N-(4-(3-(4-((S)-2,3-dihydroxypropoxy)phenyl)propyl)-5-propylimidazolidin-2-ylidene)pyrazine-2-carboxamide hydrochloride] displayed an IC50 of 0.005 µM.

`Cc1oc(-c2ccccc2)nc1COc1ccc(S(=O)(=O)N2CCC3(CC2)CN/C(=N\C(=O)c2nc(Cl)c(N)nc2N)N3)cc1` [Example 238, 3,5-Diamino-6-chloro-pyrazine-2-carboxylic acid [8-[4-(5-methyl-2-phenyl-oxazol-4-ylmethoxy)-benzenesulfonyl]-1,3,8-triaza-spiro[4.5]dec-(2E)-ylidene]-amide] came in with an IC50 of 0.0119 µM.
